Values quoted from earlier work in US20070149443A1, “Methods of treating obesity using enterostatin” (priority 2005, published 2007).

Details: administered orally to humans; literature report

enterostatin
did not affect: body weight | energy expenditure | food intake
